13 molecules from ChEMBL document CHEMBL1201862, “PubChem BioAssay data set” (2004) can be followed below.

Experiment in all cases: NCI anticancer screen, dose series, 48 h
In test [1] the test system is 786-0.
Test [2] deals with CCRF-CEM.
Test [3] deals with DU-145.
In test [4] the test system is EKVX.
The test system of test [5] is HCC 2998.
In test [6] the test system is HOP-62.
The test system of test [7] is K562.
The subject of test [8] is KM12.
For test [9], the system named is LOX IMVI.
Test [10] concerns MDA-N.
Test [11] has as its system MOLT-4.
Test [12] relates to SF-268.
In test [13] the test system is SF-295.
For test [14], the system named is SK-MEL-2.
Test [15] has as its system SK-OV-3.
Test [16] has as its system SNB-19.
Test [17] concerns T47D.
For test [18], the system named is SR.

The structures appear in SMILES notation.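 Grown in 96-well plates, cells were treated for 48 hours with each compound at five concentrations. Insufficient inhibition: endpoint recorded as highest concentration tested. GI50 marks 50% less growth.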 Active and inactive are the calls of the source. Rule as the data show it: active = GI50 up to about 1.1 µM and inactive = higher.

In the case of `O=CN1CCN(C(=O)c2cc(Cl)cc(Cl)c2)C1=S`, the GI50 in [1] was 4.71 µM (inactive); in test [2], 5.38 µM (inactive); in test [3], 16.8 µM (inactive); in [4], 17.9 µM (inactive); in test [5], 17.6 µM (inactive); in test [6], 15.2 µM (inactive). Further, the GI50 was 14.8 µM (inactive) in test [7]; 14.4 µM (inactive) in [8]; 7.13 µM (inactive) in test [9]; 18.8 µM (inactive) in test [10]; 15 µM (inactive) in [11]; 16.1 µM (inactive) in test [12]. Further, the GI50 in test [13] is 17.7 µM (inactive); in test [14], 16.9 µM (inactive); in [15], 17.5 µM (inactive); in test [16], 20.5 µM (inactive); in test [17], 10.7 µM (inactive).

For `ON=C1CCCCC(=NO)CCCC1`, the GI50 in [1], in test [3], in [5], in [7], in test [8] and in test [9] was > 100 µM (inactive) throughout. The GI50 in test [10], in [12], in test [13], in [14], in [15] and in test [16] was > 100 µM (inactive) throughout. Also, the GI50 in test [17] is > 100 µM (inactive).

As to `COC(=O)c1c(C)cccc1C1CN=NC12Cc1cc(C)c(C)cc1C2=O` (stereo not drawn), the GI50 in test [1] was 62.4 µM (inactive); in test [2], 37.8 µM (inactive); in [3] it was > 100 µM (inactive); in [4], 59.6 µM (inactive); in test [5], > 100 µM (inactive); in test [6] it was > 100 µM (inactive). For the same molecule, the GI50 was 25.4 µM (inactive) in test [7]; 30.5 µM (inactive) in test [8]; 24.2 µM (inactive) in [9]; 25.6 µM (inactive) in test [10]; 33.9 µM (inactive) in test [11]; 66.5 µM (inactive) in [12]. Also, the GI50 in test [13] is 48.5 µM (inactive); in test [14], 31 µM (inactive); in test [15], 55.2 µM (inactive); in test [16], 44.5 µM (inactive); in test [17] it was 40.6 µM (inactive).

Consider `C[C@@H](O)C(=O)N1[C@@H]2CC3CC[C@]2(CS1(=O)=O)C3(C)C`, for which the GI50 in [1] is 52.8 µM (inactive); in test [2] it was 24.2 µM (inactive); in test [3], 88.1 µM (inactive); in test [4] it was 89.7 µM (inactive); in [5] it was 49.1 µM (inactive); in test [6] it was > 100 µM (inactive). Besides, the GI50 in test [7] is 68.1 µM (inactive); in test [8] it was 82.2 µM (inactive); in test [9], > 100 µM (inactive); in [11], 31.1 µM (inactive); in test [13], > 100 µM (inactive); in [14], > 100 µM (inactive). The GI50 in test [15] was > 100 µM (inactive); in [16], 65.8 µM (inactive); in test [18] it was 18 µM (inactive); in test [17], > 100 µM (inactive).

As for `COc1cc2c(cc1OCCCC(=O)Nc1cc(C(=O)Nc3cc(C(=O)Nc4cc(C(=O)NCCCN(C)C)n(C)n4)n(C)n3)n(C)n1)N=CC1CCCN1C2=O` (stereo not drawn), the GI50 in test [1] was 4.81 µM (inactive); in test [2], 2.72 µM (inactive); in test [3], 35.4 µM (inactive); in [4], > 100 µM (inactive); in test [5], 41.9 µM (inactive); in test [6], 45.5 µM (inactive). Besides, the GI50 in [7] is 4.43 µM (inactive); in [8], 21.1 µM (inactive); in test [9] it was 3.07 µM (inactive); in [11] it was 3.01 µM (inactive); in test [12] it was 31.2 µM (inactive); in [13], 32.5 µM (inactive). Further, the GI50 was 24.8 µM (inactive) in test [14]; 45.2 µM (inactive) in [15]; 18.3 µM (inactive) in [16]; 2.77 µM (inactive) in test [18]; 56 µM (inactive) in [17].

Turning to `CCOC(=O)c1cc(C#N)[nH]c1-c1ccsc1`, the GI50 was 44 µM (inactive) in test [1]; 21.5 µM (inactive) in [2]; 24.3 µM (inactive) in test [3]; 17.6 µM (inactive) in [4]; 29.8 µM (inactive) in [5]; 59.8 µM (inactive) in test [6]. The GI50 in [7] is 25.6 µM (inactive); in test [8], 25.1 µM (inactive); in test [9], 36.2 µM (inactive); in [10], 33.9 µM (inactive); in [11], 15.3 µM (inactive); in test [12], 22.8 µM (inactive). The GI50 in test [13] was 38 µM (inactive); in test [14] it was 46.7 µM (inactive); in [15], 43.8 µM (inactive); in test [16], 56.1 µM (inactive); in [18] it was 11.8 µM (inactive).

For `C[C@]12CCC(=O)C=C1CC[C@@H]1[C@@H]2CC[C@]2(C)C(=O)[C@H](n3ccnc3)C[C@@H]12`, the GI50 in test [1] was > 100 µM (inactive); in test [2], 58.6 µM (inactive); in [3], > 100 µM (inactive); in test [4] it was > 100 µM (inactive); in test [7] it was 75.3 µM (inactive); in test [8], > 100 µM (inactive). In addition, the GI50 in test [9] is > 100 µM (inactive); in test [10], > 100 µM (inactive); in [11], 35.2 µM (inactive); in test [12], > 100 µM (inactive); in test [13] it was > 100 µM (inactive); in test [14] it was > 100 µM (inactive). Moreover, the GI50 in [16] was > 100 µM (inactive); in test [18] it was 74.1 µM (inactive).

Regarding `CC(=O)/C=c1\[nH]/c(=C\C=C\c2ccccc2)c(=O)n1/C=C1\C(=O)Oc2ccccc2C1=O`, the GI50 was > 100 µM (inactive) in test [1]; > 100 µM (inactive) in [2]; > 100 µM (inactive) in test [3]; 40.6 µM (inactive) in test [4]; > 100 µM (inactive) in test [7]; > 100 µM (inactive) in test [8]. The GI50 in test [9], in [10], in [11], in [12], in test [14] and in [15] was > 100 µM (inactive) throughout. For the same molecule, the GI50 in test [16] and in test [18] was > 100 µM (inactive) throughout.

Regarding `Cc1cc(C)nc(NC(P(=O)(O)O)P(=O)(O)O)n1`, the GI50 in test [1], in test [3], in test [4], in test [5], in test [6] and in test [8] was > 100 µM (inactive) in each case. Besides, the GI50 in [9], in test [10], in test [12], in test [13], in [15] and in test [16] was > 100 µM (inactive) in each case.

`CC(C)c1cc(CN(C)C)c(O)c(C(C)(C)C)c1`: the GI50 in test [1] was 18.5 µM (inactive); in test [2], 16.4 µM (inactive); in test [3], 36.4 µM (inactive); in test [4] it was 28.7 µM (inactive); in test [5], 16.1 µM (inactive); in test [6], 22.8 µM (inactive). The GI50 in [8] was 21.4 µM (inactive); in test [9], 17.4 µM (inactive); in [10] it was 26.6 µM (inactive); in [11], 26.2 µM (inactive); in test [12], 22 µM (inactive); in [13], 19 µM (inactive). Moreover, the GI50 was 18.1 µM (inactive) in test [14], 98.9 µM (inactive) in [15], 23.6 µM (inactive) in [16] and 24.7 µM (inactive) in [17].

Take `C[C@H]1[C@H](C)CC[C@]2(C)CC[C@]3(C)C(=C[C@@H](O)[C@@H]4[C@@]5(C)[C@H](O)[C@@H](O)[C@H](O)C(C)(C)[C@@H]5CC[C@]43C)[C@H]12`: the GI50 in [1] was > 100 µM (inactive); in test [2], > 100 µM (inactive); in test [3], > 100 µM (inactive); in test [6] it was > 100 µM (inactive); in test [7] it was > 100 µM (inactive); in test [8] it was 96.2 µM (inactive). The GI50 in test [9] was > 100 µM (inactive); in test [10], > 100 µM (inactive); in test [11] it was 82.4 µM (inactive); in [12], > 100 µM (inactive); in [13] it was > 100 µM (inactive); in test [14], > 100 µM (inactive). The GI50 in test [15], in test [16] and in test [18] was > 100 µM (inactive) in each case.

As for `CC(C)(C)OC(=O)/C=C/C(=O)O/C=C/[N+](=O)[O-]`, the GI50 in test [1], in [2], in test [3], in test [4], in test [5] and in test [6] was > 100 µM (inactive) throughout. In addition, the GI50 in test [7] is 14.4 µM (inactive); in test [8], > 100 µM (inactive); in test [9], > 100 µM (inactive); in test [10] it was > 100 µM (inactive); in test [12], > 100 µM (inactive); in test [13], > 100 µM (inactive). Besides, the GI50 is > 100 µM (inactive) in test [15] and 18.2 µM (inactive) in [18].

Turning to `Cn1c([C@H](C#N)c2ncccc2[N+](=O)[O-])nc2ccccc21`, the GI50 was 31.8 µM (inactive) in test [1]; 0.632 µM (active) in [2]; 56 µM (inactive) in test [4]; > 100 µM (inactive) in test [5]; 24.5 µM (inactive) in test [6]; > 100 µM (inactive) in [7]. The GI50 in [8] was > 100 µM (inactive); in [9], > 100 µM (inactive); in test [10] it was > 100 µM (inactive); in test [11], > 100 µM (inactive); in test [12], 36 µM (inactive); in [13], 28.4 µM (inactive). The GI50 is 40.6 µM (inactive) in test [14], 32.8 µM (inactive) in test [15], 50 µM (inactive) in test [16] and > 100 µM (inactive) in test [18].
